In assay [1] the target is T1, truncated His-MBP-Tev-KLHDC2 (residues 1-363) (Homo sapiens, UniProt Q9Y2U9).
T1 construct: truncated His -MBP-Tev-KLHDC2 (residues 1-363) purified from E. coli; made in house; host or cells: E. coli
T1 sequence (Q9Y2U9 1-363): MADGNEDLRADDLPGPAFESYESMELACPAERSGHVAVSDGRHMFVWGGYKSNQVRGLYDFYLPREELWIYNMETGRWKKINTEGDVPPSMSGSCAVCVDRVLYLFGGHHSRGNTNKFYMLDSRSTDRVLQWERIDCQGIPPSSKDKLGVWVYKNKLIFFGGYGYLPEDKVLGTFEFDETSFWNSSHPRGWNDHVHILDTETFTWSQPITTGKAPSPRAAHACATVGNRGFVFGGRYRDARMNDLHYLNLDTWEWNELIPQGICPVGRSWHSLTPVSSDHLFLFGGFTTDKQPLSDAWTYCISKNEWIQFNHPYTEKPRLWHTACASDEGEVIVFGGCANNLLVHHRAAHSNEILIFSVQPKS
Nature of the assay: KLHDC2 HTRF binding assay. The note with it: 1 nM KLHDC2 (residues 1-363), fluorescein-labeled diglycine peptide probe. For orientation: Time-resolved FRET reads energy transfer from a long-lived donor to a nearby acceptor.
Experimental: HTRF binding assays were performed using 1 nM truncated His -MBP-Tev-KLHDC2 (residues 1-363) purified from E. coli, 0.2 nM terbium-anti-His antibody (CisBio), 1 nM fluorescein-labeled diglycine peptide probe, and test compounds in assay buffer consisting of 50 mM HEPES-Na pH 7.5, 100 mM NaCl, 2 mM DTT, 0.005% Tween-20 with a final volume of 20 uL. Compound stocks were dissolved at 10 mM in 100% DMSO and 11 point titration with 3 fold serial dilution was performed in white, opaque 384 well microplates. Reaction plates were incubated at room temperature for 30 minutes. Plates were centrifuged at low rpm for 5 mins, and the ratio of fluorescence intensities were measured at emission wavelengths for fluorescein acceptor (520 nm) and terbium donor (495 nm) on Envision Plate reader. % Inhibition was calculated from the 520/495 ratio generated by the no protein controls for 100% inhibition and DMSO only reactions for 0l % inhibition.

Assay [2] deals with T1, truncated His-MBP-Tev-KLHDC2 (residues 1-363). Briefly: KLHDC2 FP competition binding assay. To be noted: 15 nM KLHDC2 (residues 1-363), 10 nM fluorescein-labeled diglycine peptide probe, read-out: KLHDC2 binding Human FP: average external IC50.

Our source for the IC50 values is patent publication US20250214969A1, “PROTEIN DEGRADERS AND USES THEREOF” (Kymera Therapeutics, Inc., priority 2022, published 2025).

Bounds are passed on as bounds.

What is called IC50 is the concentration at which inhibition is half-maximal. `O=C(O)Cc1cc(NC(=O)c2cccc(-c3cccnc3)c2)ccc1Cl` [I-60]: the half-maximal inhibitory concentration (IC50) is 0.5 to 5 µM in assay [1] and > 5 µM in assay [2].
As to `CC1CCN(c2cccnc2)CC1C(=O)Nc1ccc(=O)n(CC(=O)O)c1` (centres unmarked) [I-61], the IC50 was 0.05 to 0.5 µM in assay [1] and 0.5 to 5 µM in assay [2].
Taken in the same sequence, the figures for `O=C(O)Cn1cc(NC(=O)c2cccc(-c3cccnc3)c2)c(C2CC2)cc1=O` [I-62] were 0.5 to 5 µM and > 5 µM.
Taken in the same sequence, the figures for `O=C(O)Cn1cc(NC(=O)[C@@H]2CCCN(c3cccnc3)C2)c(C(F)(F)F)cc1=O` [I-63] were 0.5 to 5 µM and > 5 µM.
Take `O=C(O)Cn1cc(NC(=O)[C@H]2C[C@H](C(F)(F)F)CN(c3cccnc3)C2)ccc1=O` [I-64]: the IC50 in assay [1] was in the range of 0.05 to 0.5 µM; in assay [2], 0.5 to 5 µM.
The matching figures for `O=C(O)Cn1cc(NC(=O)[C@@H]2C[C@H](C(F)(F)F)CN(c3cccnc3)C2)ccc1=O` [I-65]: 0.05 to 0.5 µM and 0.5 to 5 µM.
Taken in the same sequence, the figures for `C[C@@]1(C(=O)Nc2ccc(=O)n(CC(=O)O)c2)CCCN(c2cccnc2)C1` [I-66] were 0.5 to 5 µM and > 5 µM.
Taken in the same sequence, the figures for `O=C(O)Cn1cc(NC(=O)[C@H]2CCCN(c3cccnc3)C2)c(C(F)(F)F)cc1=O` [I-67] were > 5 µM and > 5 µM.
Turning to `O=C(O)Cn1cc(N2CCc3cc(-c4cccnc4)ccc3C2=O)ccc1=O` [I-68], the results for the concentration for half-maximal inhibition (IC50) in assay [1] and in assay [2] were 0.5 to 5 µM and > 5 µM, respectively.
On to `N#CCn1cc(NC(=O)c2cccc(-c3cccnc3)c2)ccc1=O` [I-69], for which the half-inhibitory concentration (IC50) in assay [1] and in assay [2] was > 5 µM each time.
In the case of `Cc1c(NC(=O)c2cccc(-c3cccnc3)c2)ccc(=O)n1CC(=O)O` [I-70], the IC50 in assay [1] and in assay [2] was > 5 µM each time.
For the molecule `C[C@@H](C(=O)O)n1cc(NC(=O)c2cccc(-c3cccnc3)c2)ccc1=O` [I-71], the IC50 in assay [1] and in assay [2] was > 5 µM in each case.
On to `C[C@H](C(=O)O)n1cc(NC(=O)c2cccc(-c3cccnc3)c2)ccc1=O` [I-72], for which the IC50 in assay [1] was 0.5 to 5 µM; in assay [2] it was > 5 µM.
Taken in the same sequence, the figures for `O=C(O)Cn1cc(NC(=O)c2cccc(-c3cccnc3)c2)c(C(F)(F)F)cc1=O` [I-73] were 0.5 to 5 µM and > 5 µM.
For `O=C(O)Cn1cc(N2CCc3cccc(-c4cccnc4)c3C2=O)ccc1=O` [I-74], the half-inhibitory concentration (IC50) in assay [1] and in assay [2] was > 5 µM throughout.
As for `C[C@]1(C(=O)Nc2ccc(=O)n(CC(=O)O)c2)CCCN(c2cccnc2)C1` [I-75], the IC50 in assay [1] and in assay [2] was 0.5 to 5 µM throughout.
As to `CS(=O)(=O)NC(=O)Cn1cc(NC(=O)c2cccc(-c3cccnc3)c2)ccc1=O` [I-78], the 50% inhibitory concentration (IC50) in assay [1] and in assay [2] was > 5 µM throughout.
`O=C(Nc1ccc(=O)n(Cc2nn[nH]n2)c1)c1cccc(-c2cccnc2)c1` [I-79]: the concentration for half-maximal inhibition (IC50) in assay [1] and in assay [2] was > 5 µM each time.
For `O=C(O)Cn1cc(N2Cc3cccc(-c4cccnc4)c3C2=O)ccc1=O` [I-80], the 50% inhibitory concentration (IC50) in assay [1] and in assay [2] was > 5 µM in each case.
In the case of `O=C(O)Cn1cc(N2Cc3ccc(-c4cccnc4)cc3C2=O)ccc1=O` [I-81], the IC50 in assay [1] and in assay [2] was > 5 µM in each case.
Take `O=C(O)Cn1cc(NC(=O)[C@@H]2CCCN(c3cccnc3)C2)c(Cl)cc1=O` [I-82]: the IC50 was 0.5 to 5 µM in assay [1] and > 5 µM in assay [2].
Regarding `O=C(O)Cn1cc(NC(=O)[C@H]2CCCN(c3cccnc3)C2)c(Cl)cc1=O` [I-83], the IC50 in assay [1] was 0.05 to 0.5 µM; in assay [2] it was 0.5 to 5 µM.
`Cc1cc(=O)n(CC(=O)O)cc1NC(=O)[C@H]1CCCN(c2cccnc2)C1` [I-84]: the IC50 in assay [1] lay within 0.05 to 0.5 µM; in assay [2], 0.5 to 5 µM.
Taken in the same sequence, the figures for `O=C(O)Cn1cc(NC(=O)c2nccc(-c3cccnc3)n2)ccc1=O` [I-85] were 0.5 to 5 µM and 0.5 to 5 µM.
Taken in the same sequence, the figures for `O=C(O)CN1CC(NC(=O)c2cccc(-c3cccnc3)c2)CCC1=O` (centres unmarked) [I-86] were > 5 µM and > 5 µM.
Taken in the same sequence, the figures for `O=C(O)Cn1cc(Nc2ncnc3c(-c4cccnc4)cccc23)ccc1=O` [I-87] were > 5 µM and > 5 µM.
Take `O=C(O)Cn1cc(NC(=O)c2cc(-c3cccnc3)c3ccccc3c2)ccc1=O` [I-88]: the IC50 in assay [1] and in assay [2] was 0.5 to 5 µM throughout.
`O=C(O)Cn1cc(N2CCc3ccc(-c4cccnc4)cc3C2=O)ccc1=O` [I-89]: the IC50 in assay [1] lay in the range of 0.05 to 0.5 µM; in assay [2], 0.5 to 5 µM.
Consider `O=C(O)CC1CN(C(=O)c2cccc(-c3cccnc3)c2)CCO1` (centres unmarked) [I-90], for which the IC50 in assay [1] and in assay [2] was > 5 µM in each case.
As to `O=C(O)Cn1cc(NC(=O)[C@H]2CCCN(c3cccnc3)C2)ccc1=O` [I-91], the figures for the IC50 in assay [1] and in assay [2] were < 0.05 µM and 0.05 to 0.5 µM, respectively.
The matching figures for `O=C(O)Cn1cc(NC(=O)[C@@H]2CCCN(c3cccnc3)C2)ccc1=O` [I-92]: 0.05 to 0.5 µM and 0.5 to 5 µM.
Taken in the same sequence, the figures for `O=C(O)Cn1cc(Nc2nccc3c(-c4cccnc4)cccc23)ccc1=O` [I-93] were > 5 µM and > 5 µM.
Taken in the same sequence, the figures for `O=C(O)CCn1cc(NC(=O)c2cccc(-c3cccnc3)c2)ccc1=O` [I-94] were > 5 µM and > 5 µM.
`O=C(O)Cn1cc(N2CCc3ccccc3C2=O)ccc1=O` [I-95]: the values for the half-maximal inhibitory concentration (IC50) in assay [1] and in assay [2] were 0.5 to 5 µM and > 5 µM, respectively.
The matching figures for `Cc1cc(=O)n(CC(=O)O)cc1NC(=O)c1cccc(-c2cccnc2)c1` [I-96]: 0.05 to 0.5 µM and 0.5 to 5 µM.
`O=C(O)Cn1cc(NC(=O)c2cccc(-c3cccnc3)c2)c(Cl)cc1=O` [I-97]: the IC50 in assay [1] was in the range of 0.05 to 0.5 µM; in assay [2], 0.5 to 5 µM.
Taken in the same sequence, the figures for `CCOC(=O)Cn1cc(NC(=O)c2cccc(-c3cccnc3)c2)ccc1=O` [I-98] were > 5 µM and > 5 µM.
Taken in the same sequence, the figures for `NCCCCCCCCCc1ccc2c(-c3cccc(C(=O)Nc4ccc(=O)n(CC(=O)O)c4)c3)cncc2c1` [I-107] were < 0.05 µM and > 5 µM.
As for `NCCCCCCCCCc1cccc2c(-c3cccc(C(=O)Nc4ccc(=O)n(CC(=O)O)c4)c3)cncc12` [I-109], the IC50 in assay [1] is 0.05 to 0.5 µM; in assay [2] it was > 5 µM.
Taken in the same sequence, the figures for `NCCCCCCc1cccc2c(-c3cccc(C(=O)Nc4ccc(=O)n(CC(=O)O)c4)c3)cncc12` [I-110] were 0.05 to 0.5 µM and > 5 µM.
With `NC(=O)Cn1cc(NC(=O)c2cccc(-c3cncc4ccccc34)c2)ccc1=O` [I-122], the IC50 in assay [1] and in assay [2] was > 5 µM in each case.
With `NC(=O)Cn1cc(NC(=O)c2cccc(-c3cccnc3)c2)ccc1=O` [I-123], the concentration for half-maximal inhibition (IC50) in assay [1] and in assay [2] was > 5 µM in each case.
For the molecule `O=C(O)Cn1cc(NC(=O)c2cccc(-c3cncc4ccccc34)c2)ccc1=O` [I-131], the IC50 in assay [1] was < 0.05 µM; in assay [2] it was 0.5 to 5 µM.
Taken in the same sequence, the figures for `CC(C)Cn1ccc2c(C(=O)Nc3ccc(=O)n(CC(=O)O)c3)ccnc21` [I-132] were 0.5 to 5 µM and > 5 µM.
The matching figures for `CC(C)Cn1cnc2c(C(=O)Nc3ccc(=O)n(CC(=O)O)c3)cccc21` [I-133]: 0.5 to 5 µM and > 5 µM.
The matching figures for `COc1cc(-c2ccc(Cl)cc2)ccc1C(=O)Nc1ccc(=O)n(CC(=O)O)c1` [I-134]: 0.05 to 0.5 µM and 0.5 to 5 µM.
Consider `COc1cc(-c2ccc(C)cc2)ccc1C(=O)Nc1ccc(=O)n(CC(=O)O)c1` [I-135], for which the IC50 is 0.5 to 5 µM in assay [1] and > 5 µM in assay [2].
Taken in the same sequence, the figures for `CC(C)Cn1ncc2c(C(=O)Nc3ccc(=O)n(CC(=O)O)c3)cccc21` [I-136] were 0.5 to 5 µM and > 5 µM.
The matching figures for `NCCCCCCn1ccc2c(C(=O)Nc3ccc(=O)n(CC(=O)O)c3)cccc21` [I-137]: > 5 µM and > 5 µM.
The matching figures for `O=C(O)Cn1cc(NC(=O)c2cccc(-c3nc4ccccc4s3)c2)ccc1=O` [I-138]: 0.05 to 0.5 µM and 0.5 to 5 µM.
Consider `O=C(O)Cn1cc(NC(=O)c2cccc3[nH]ccc23)ccc1=O` [I-139], for which the 50% inhibitory concentration (IC50) in assay [1] is 0.5 to 5 µM; in assay [2], > 5 µM.
The matching figures for `O=C(O)Cn1cc(NC(=O)N2CCC(c3ccccc3)CC2)ccc1=O` [I-140]: > 5 µM and > 5 µM.
The matching figures for `O=C(O)Cn1cc(NC(=O)c2cccc(-c3cccnc3)n2)ccc1=O` [I-141]: 0.5 to 5 µM and > 5 µM.
Taken in the same sequence, the figures for `O=C(O)Cn1cc(NC(=O)c2cc(-c3cccnc3)ccn2)ccc1=O` [I-142] were 0.05 to 0.5 µM and 0.5 to 5 µM.
`COc1cc(-c2ccsc2)ccc1C(=O)Nc1ccc(=O)n(CC(=O)O)c1` [I-143]: the IC50 in assay [1] and in assay [2] was 0.5 to 5 µM throughout.
As for `NCCCCCCc1ccc(C(=O)Nc2ccc(=O)n(CC(=O)O)c2)cc1-c1cccnc1` [I-144], the IC50 in assay [1] and in assay [2] was 0.5 to 5 µM each time.
With `Cn1ccc2c(C(=O)Nc3ccc(=O)n(CC(=O)O)c3)cccc21` [I-145], the figures for the IC50 in assay [1] and in assay [2] were 0.5 to 5 µM and > 5 µM, respectively.
The matching figures for `CC(C)(C)OC(=O)NCCCCCCc1ccc(C(=O)Nc2ccc(=O)n(CC(=O)O)c2)cc1-c1cccnc1` [I-146]: 0.05 to 0.5 µM and 0.05 to 0.5 µM.
